Experimental data: patent US20020132853A1, “Capsaicin receptor ligands” (priority 2000, published 2002)
Like-named read-outs stand apart in the source and are kept apart here.

Target: T1, human capsaicin receptor (Homo sapiens, UniProt Q8NER1)
T1 construct: expression consrtuct encoding the full length human capsaicin receptor; expressed in transfected cells
Test: Antagonist assay for Capsaicin receptor mediated calcium mobilization
Type: cell-based
Settings: read-out: EC50 (the source's name)
Description: Calcium Mobilization Assay
Cells transfected with expression plasmids (as described in Example 10) and thereby expressing the human capsaicin receptor are seeded and grown to 70-90% confluency in FALCON black-walled, clear-bottomed 96-well plates (#3904, BECTON-DICKINSON, Franklin Lakes, N.J.) . The culture media are emptied from the 96 well plates and FLUO-3 AM calcium sensitive dye (Molecular Probes, Eugene, OR) is added to each well (dye solution: 1 mg FLUO-3 AM, 440 uL DMSO and 440 ul 20% pluronic acid in DMSO, diluted 1:4, 50 ul diluted solution per well). Plates are covered with aluminum foil and incubated at 37° C for 1-2 hours in an environment containing 5% CO2. After the incubation the dye is emptied from the plates, and the cells are washed once with Krebs-Ringer HEPES (KRH) buffer (25 mM HEPES, 5 mM KCl, 0.96 mM NaH2PO4, 1 MM MgSO4, 2 mM CaCl2, 5 mM glucose, 1 mM probenecid, pH 7.4), and resuspended in KRH buffer.
Agonist (e.g., olvanil, capsaicin, or RTX)-induced calcium mobilization is monitored using either FLUOROSKAN ASCENT (Labsystems, Franklin, Mass.) or FLIPR (fluorometric imaging plate reader system, Molecular Devices, Sunnyvale, Calif.) instruments. Similarly, varying concentrations of the antagonists ruthenium red or capsazepine are added to cells concurrently with agonist (e.g., 25-50 nM capsaicin). For agonist-induced calcium responses, data obtained between 30 and 60 seconds after agonist application are used to generate the EC50 values. […] software (Synergy Software, Reading, Pa.) was utilized to fit the data to the equation: […]
to determine the EC50 for the response. In this equation, y is the maximum fluorescence signal, x is the concentration of the agonist or antagonist, a is the Emax, b corresponds to the EC50 or IC50 value, and finally, c is the Hill coefficient.
Assay for Determination of Capsaicin Receptor Antagonist Effects
In order to measure the ability of a test compound to antagonize (inhibit) the response of cells expressing capsaicin receptors to capsaicin or other vanilloid agonist, the EC50 of capsaicin is first determined.
An additional 20 ul of KRH buffer and 1 ul DMSO is added to each well of cells, prepared as described above. 100 ul capsaicin in KRH buffer is automatically transferred by the FLIPR instrument to each well.
Test compounds are dissolved in DMSO, diluted in 20 ul KRH buffer so that the final concentration of test compounds in the assay well is between 1 uM and 5 uM, and added to cells prepared as described above. The 96 well plates containing prepared cells and test compounds are incubated in the dark, at room temperature for 0.5-6 hours. It is important that the incubation not continue beyond 6 hours. Just prior to determining the fluorescence response, 100 ul capsaicin in KRH buffer at twice the EC50 concentration determined from the concentration response curve is automatically added by the FLIPR instrument to each well of the 96 well plate for a final sample volume of 200 ul and a final capsaicin concentration equal to the EC50. The final concentration of test compounds in the assay wells is between 1 uM and 5 uM. […] Antagonists of the capsaicin receptor decrease this response by about 20%, preferably by about 50%, and most preferably by at least 80% as compared to matched control. The concentration of antagonist required to provide a 50% decrease is the EC50 for the antagonist (also referred to as the IC50).

T1 sequence (Q8NER1 whole entry): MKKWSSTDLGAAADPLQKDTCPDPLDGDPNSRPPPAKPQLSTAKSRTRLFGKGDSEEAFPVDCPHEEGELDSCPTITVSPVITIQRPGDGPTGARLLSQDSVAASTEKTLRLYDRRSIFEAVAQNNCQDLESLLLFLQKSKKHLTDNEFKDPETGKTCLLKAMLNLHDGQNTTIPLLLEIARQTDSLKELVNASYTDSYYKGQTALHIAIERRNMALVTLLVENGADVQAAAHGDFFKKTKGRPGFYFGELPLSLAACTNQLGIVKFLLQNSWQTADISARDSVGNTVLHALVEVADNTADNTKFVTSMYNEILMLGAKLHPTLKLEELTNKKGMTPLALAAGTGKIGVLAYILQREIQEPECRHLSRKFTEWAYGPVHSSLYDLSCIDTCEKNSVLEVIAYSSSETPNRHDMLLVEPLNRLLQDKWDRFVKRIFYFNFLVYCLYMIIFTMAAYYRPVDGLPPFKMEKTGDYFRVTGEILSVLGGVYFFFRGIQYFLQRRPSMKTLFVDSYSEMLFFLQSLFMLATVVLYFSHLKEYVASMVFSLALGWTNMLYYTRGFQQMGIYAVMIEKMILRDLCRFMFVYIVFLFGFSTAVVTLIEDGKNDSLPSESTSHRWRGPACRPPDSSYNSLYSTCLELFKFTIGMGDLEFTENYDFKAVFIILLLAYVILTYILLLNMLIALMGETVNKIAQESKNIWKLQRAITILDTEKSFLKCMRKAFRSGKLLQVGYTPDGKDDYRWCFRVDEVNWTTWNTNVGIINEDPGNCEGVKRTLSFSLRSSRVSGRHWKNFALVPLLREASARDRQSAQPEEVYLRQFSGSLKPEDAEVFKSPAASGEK

| IC50 (Table III) | IC50 (Table V) | Compound | also measured |
| --- | --- | --- | --- |
| < 1000 nM | – | C[C@@H]1CN(c2ncccc2Cl)CCN1C(=O)Nc1ccc(C(F)(F)F)cc1F [Compound 27, (2R)-4-(3-chloropyridin-2-yl)-N-[2-fluoro-4-(trifluoromethyl)phenyl]-2-methylpiperazine-1-carboxamide] | – |
| < 1000 nM | – | CC1CN(c2ncccc2Cl)CC(C)N1C(=O)Nc1ccc(C(C)(C)C)cc1 (stereo not drawn) [Compound 32, N-(4-tert-butylphenyl)-4-(3-chloropyridin-2-yl)-2,6-dimethylpiperazine-1-carboxamide] | – |
| < 1000 nM | – | C[C@@H]1CN(c2ncccc2F)CCN1C(=O)Nc1ccc(C2CCCCC2)cc1 [Compound 78, (2R)-N-(4-cyclohexylphenyl)-4-(3-fluoropyridin-2-yl)-2-methylpiperazine-1-carboxamide] | – |
| < 1000 nM | – | C[C@@H]1CN(c2ncccc2C(F)(F)F)CCN1C(=O)Nc1ccc(C(C)(C)C)cc1 [Compound 29, (2R)-N-(4-tert-butylphenyl)-2-methyl-4-[3-(trifluoromethyl)pyridin-2-yl]piperazine-1-carboxamide] | – |
| < 1000 nM | – | C[C@@H]1CN(c2ncccc2Cl)CCN1C(=O)Nc1ccc(C2CCCCC2)cc1 [Compound 18, (2R)-4-(3-chloropyridin-2-yl)-N-(4-cyclohexylphenyl)-2-methylpiperazine-1-carboxamide] | – |
| – | < 1000 nM | Cc1ccc(NC(=O)N2CCN(c3ncccc3C(F)(F)F)C[C@H]2C)cc1C(F)(F)F [Compound 155, (2R)-2-methyl-N-[4-methyl-3-(trifluoromethyl)phenyl]-4-[3-(trifluoromethyl)pyridin-2-yl]piperazine-1-carboxamide] | – |
| – | – | CC(C)C1CCC(NC(=O)N2CCN(c3ncccc3C(F)(F)F)C[C@H]2C)CC1 (stereo partly drawn) [Compound 101, (2R)-N-(4-isopropylcyclohexyl)-2-methyl-4-[3-(trifluoromethyl)pyridin-2-yl]piperazine-1-carboxamide] | IC50 (Table IV): < 1000 nM |
| – | < 1000 nM | CC(c1ccc(NC(=O)N2CCN(c3ncccc3F)C[C@H]2C)cc1)C(F)(F)F (stereo partly drawn) [Compound 130, (2R)-4-(3-fluoropyridin-2-yl)-2-methyl-N-[4-(2,2,2-trifluoro-1-methylethyl)phenyl]piperazine-1-carboxamide] | – |
| < 1000 nM | – | Cc1nc(-c2ccc(NC(=O)N3CCN(c4ncccc4Cl)C[C@H]3C)cc2)cs1 [Compound 52, (2R)-4-(3-chloropyridin-2-yl)-2-methyl-N-[4-(2-methyl-1,3-thiazol-4-yl)phenyl]piperazine-1-carboxamide] | – |
| – | < 1000 nM | C[C@@H]1CN(c2ncccc2F)CCN1C(=O)Nc1cccc(I)c1 [Compound 151, (2R)-4-(3-fluoropyridin-2-yl)-N-(3-iodophenyl)-2-methylpiperazine-1-carboxamide] | – |
| – | < 1000 nM | C[C@@H]1CN(c2ncccc2C(F)(F)F)CCN1C(=O)Nc1ccc(Br)c(C(F)(F)F)c1 [Compound 157, (2R)-N-[4-bromo-3-(trifluoromethyl)phenyl]-2-methyl-4-[3-(trifluoromethyl)pyridin-2-yl]piperazine-1-carboxamide] | – |
| < 1000 nM | – | COc1cccnc1N1CCN(C(=O)Nc2ccc(C(C)(C)C)cc2)[C@H](C)C1 [Compound 45, (2R)-N-(4-tert-butylphenyl)-4-(3-methoxypyridin-2-yl)-2-methylpiperazine-1-carboxamide] | – |
| – | – | O=C(Nc1ccc(C(F)(F)F)cn1)N1CCN(c2ncccc2Cl)CC1 [Compound 93, 4-(3-chloropyridin-2-yl)-N[5-(trifluoromethyl)pyridin-2-yl]piperazine-1-carboxamide] | IC50 (Table IV): < 1000 nM |
| < 1000 nM | – | CCC1CN(c2ncccc2Cl)CCN1C(=O)Nc1ccc(C(F)(F)F)cc1 (stereo not drawn) [Compound 59, 4-(3-chloropyridin-2-yl)-2-ethyl-N-[4-(trifluoromethyl)phenyl]piperazine-1-carboxamide] | – |
| < 1000 nM | – | C[C@@H]1CN(c2ncccc2F)CCN1C(=O)Nc1ccc(C2CCCC2)cc1 [Compound 79, (2R)-N-(4-cyclopentylphenyl)-4-(3-fluoropyridin-2-yl)-2-methylpiperazine-1-carboxamide] | – |
| < 1000 nM | – | C[C@@H]1CN(c2ncccc2Cl)CCN1C(=O)Nc1ccc(C(C)(C)C)cc1 [Compound 21, (2R)-N-(4-tert-butylphenyl)-4-(3-chlorpyridin-2-yl)-2-methylpiperazine-1-carboxamide] | – |
| – | < 1000 nM | C[C@@H]1CN(c2ncccc2C(F)(F)F)CCN1C(=O)Nc1ccc(C(C(F)(F)F)(C(F)(F)F)C(F)(F)F)cc1 [Compound 149, (2R)-2-methyl-N-{4-[2,2,2-trifluoro-1,1-bis(trifluoromethyl)-ethyl]phenyl}-4-[3-(trifluoromethyl)pyridin-2-yl]piperazine-1-carboxamide] | – |
| – | < 1000 nM | C[C@@H]1CN(c2ncccc2Cl)CCN1C(=O)Nc1ccc(F)c(C(F)(F)F)c1 [Compound 159, (2R)-4-(3-chlorpyridin-2-yl)-N-[4-fluoro-3-(trifluoromethyl)phenyl]-2-methylpiperazine-1-carboxamide] | – |
| – | < 1000 nM | C[C@@H]1CN(c2ncccc2C(F)(F)F)CCN1C(=O)Nc1ccc2c(c1)Cc1ccccc1-2 [Compound 143, (2R)-N-(9H-fluoren-2-yl)-2-methyl-4-[3-(trifluoromethyl)pyridin-2-yl]piperazine-1-carboxamide] | – |
| – | – | C[C@@H]1CN(c2nccnc2Cl)CCN1C(=O)Nc1ccc(C2CCCC2)cc1 [Compound 165, (2R)-4-(3-chloropyrazin-2-yl)-2-methyl-N-{4-cyclopentyl-phenyl}piperazine-1-carboxamide] | IC50 (Table VI): < 1000 nM |
| < 1000 nM | – | C[C@@H]1CN(c2ncccc2N(C)C)CCN1C(=O)Nc1ccc(C(C)(C)C)cc1 [Compound 43, (2R)-N-(4-tert-butylphenyl)-4-[3-(dimethylamino)pyridin-2-yl]-2-methylpiperazine-1-carboxamide] | – |
| < 1000 nM | – | CC(C)C1CN(c2ncccc2Cl)CCN1C(=O)Nc1ccc(C(C)(C)C)cc1 (stereo not drawn) [Compound 69, N-(4-tert-butylphenyl)-4-(3-chloropyridin-2-yl)-2-isopropylpiperazine-1-carboxamide] | – |
| < 1000 nM | – | C[C@@H]1CN(c2ncccc2C(F)(F)F)CCN1C(=O)Nc1ccc(C(C)(C)C#N)cc1 [Compound 57, (2R)-N-[4-(1-cyano-1-methylethyl)phenyl]-2-methyl-4-[3-(trifluoromethyl)pyridin-2-yl]piperazine-1-carboxamide] | – |
| – | – | C[C@@H]1CN(c2ncccc2Cl)CCN1C(=O)Oc1ccc(C(C)(C)C)cc1 [Compound 173] | IC50 (Table VI): < 1000 nM |
| < 1000 nM | – | C[C@@H]1CN(c2ncccc2C(F)(F)F)CCN1C(=O)Nc1ccc(C2CCCCC2)cc1 [Compound 34, (2R)-N-(4-cyclohexylphenyl)-2-methyl-4-[3-(trifluoromethyl)pyridin-2-yl]piperazine-1-carboxamide] | – |
| < 1000 nM | – | CCc1nc(-c2ccc(NC(=O)N3CCN(c4ncccc4Cl)C[C@H]3C)cc2)cs1 [Compound 53, (2R)-4-(3-chloropyridin-2-yl)-N-[4-(2-ethyl-1,3-thiazol-4-yl)phenyl]-2-methylpiperazine-1-carboxamide] | – |
| < 1000 nM | – | C[C@@H]1CN(c2ncccc2F)CCN1C(=O)Nc1ccc(C(F)(F)F)cc1 [Compound 75, (2R)-4-(3-fluoropyridin-2-yl)-2-methyl-N-[4-(trifluoromethyl)phenyl]piperazine-1-carboxamide] | – |
| – | – | CC(C)c1ccc(NC(=S)N2CCN(c3ncccc3Cl)C[C@@H]2C)cc1 [Compound 170] | IC50 (Table VI): < 1000 nM |
| – | < 1000 nM | O=C(Nc1ccc(C(F)(F)F)cc1)N1CCN(c2ncccc2C(F)(F)F)CC1CF (stereo not drawn) [Compound 153, 2-(fluoromethyl)-N-[4-(trifluoromethyl)phenyl]-4-[3-(trifluoromethyl)pyridin-2-yl]piperazine-1-carboxamide] | – |
| – | < 1000 nM | O=C(Nc1cc(Cl)cc(Cl)c1)N1CCN(c2ncccc2C(F)(F)F)CC1 [Compound 119, N-(3,5-dichlorophenyl)-4-[3-(trifluoromethyl)pyridin-2-yl]piperazine-1-carboxamide] | – |
